Reference: PMC12587574, “Mass balance, pharmacokinetics, metabolism, and excretion of radiolabeled acoziborole, a potential novel treatment for human African trypanosomiasis, following single microtracer oral dose to humans” (Antimicrobial Agents and Chemotherapy, 2025)
Like-named read-outs stand apart in the source and are kept apart here.

Tests used:
[1] = design: method as in PMID 21738803; details: liver sub-cellular fractions from rodents, dogs, cynomolgus monkeys, and humans; cited from earlier work
[2] = target: T1, CYP3A4 (Homo sapiens, UniProt P08684); test: Incubation with CYP450 recombinant enzymes (Bactosomes) and NADPH; assay type: in vitro ADME; details: 1 µM
T1 construct: purchased

[3] = design: method as in PMID 21738803; details: rats; cited from earlier work
[4] = design: method as in PMID 21738803; details: oral, mice; cited from earlier work
[5] = Plasma pharmacokinetics of acoziborole and SCYX-3109 by LC-MS/MS, phase I mass balance study; assay type: in vivo, human
Procedure: This single-center, open-label, single group, non-randomized, single oral dose study was performed at Quotient Sciences Ltd (Ruddington, Nottingham, UK). Clinical trial authorization was obtained from the Medicines and Healthcare Products Regulatory Agency (UK). Approval for administration of [^14C]-acoziborole was obtained from an expert committee sponsored by the Department of Health and Social Care in the United Kingdom (Administration of Radioactive Substances Advisory Committee [ARSAC]), and from the ARSAC-accredited Quotient Sciences’ nuclear medicine practitioner. This study was approved by a local research ethics committee in the United Kingdom and was conducted in compliance with the Declaration of Helsinki and the International Conference on Harmonisation E6 Guideline for Good Clinical Practice. The study was registered in clinicaltrials.gov (NCT04270981) and in EudraCT (reference 2019-004059-35). Written informed consent was obtained from all participants before undertaking any study-related procedures.
Participants were admitted in the evening of the day before dosing (Day −1) and were dosed in the morning of Day 1, following an overnight fast from food and drink of a minimum of 9 h. They remained fasted until approximately 4 h post-dose, at which time lunch was provided. Participants remained resident in the clinic until up to 240 h after dosing (up to Day 11). […] However, due to the COVID-19 pandemic, instead of returning for the outpatient visits, participants were requested to perform home collection of feces for a 48-h period (i.e., Days 31–33, Days 59–61, Days 89–91, and Days 119–121). Collected samples were couriered to the clinical unit at the end of each collection period. A follow-up call took place 5–10 days after the final outpatient visit to ensure the well-being of participants.
Venous blood samples were collected via an indwelling cannula or by venepuncture. A 12 mL sample was taken into heparinized glass tube and chilled on ice immediately before IP administration and 3 mL samples were taken at 1, 4, 9, 12, 24, 48, 72, 96, 120, 144, 168, and 240 h and on Days 15, 31, 59, 89, and 119 after IP administration. The first 0.5 mL of blood withdrawn via cannula was discarded. One aliquot of heparinized whole blood (1 mL) per time point was stored at or below −20°C for total radioactivity analysis. The remaining blood was centrifuged, and the harvested plasma was stored at approximately −20°C for bioanalysis or transferred (exactly 1 mL) into polypropylene tubes pre-filled with 5 µL formic acid. One plasma sample (0.5 mL) was used for metabolite profiling while another (0.5 mL) was used for parent drug and SCYX-3109 metabolite analysis. The remaining plasma was used for total radioactivity analysis.
SGS Belgium (Wavre, Belgium) performed the analysis to determine acoziborole and SCYX-3109 concentrations, using validated bioanalytical assays with liquid chromatography with tandem mass spectrometry (LC-MS/MS) with a Supelco Ascentis Express C8, 2.7 µm, 50 × 2.1 mm I.D. separation column. In plasma, the lower limit of quantification (LLOQ) was 25 ng/mL for acoziborole and 10 ng/mL for SCYX-3109. In urine, the LLOQ was 10 ng/mL for both acoziborole and SCYX-3109.
PK parameters were calculated based on actual sampling times using standard non-compartmental analysis and WinNonlin version 8.1 software (Certara, Princeton, NJ, USA).
The SCYX-3109 to parent ratios were calculated based on Cmax and AUC0–∞.

T1 sequence (P08684 whole entry): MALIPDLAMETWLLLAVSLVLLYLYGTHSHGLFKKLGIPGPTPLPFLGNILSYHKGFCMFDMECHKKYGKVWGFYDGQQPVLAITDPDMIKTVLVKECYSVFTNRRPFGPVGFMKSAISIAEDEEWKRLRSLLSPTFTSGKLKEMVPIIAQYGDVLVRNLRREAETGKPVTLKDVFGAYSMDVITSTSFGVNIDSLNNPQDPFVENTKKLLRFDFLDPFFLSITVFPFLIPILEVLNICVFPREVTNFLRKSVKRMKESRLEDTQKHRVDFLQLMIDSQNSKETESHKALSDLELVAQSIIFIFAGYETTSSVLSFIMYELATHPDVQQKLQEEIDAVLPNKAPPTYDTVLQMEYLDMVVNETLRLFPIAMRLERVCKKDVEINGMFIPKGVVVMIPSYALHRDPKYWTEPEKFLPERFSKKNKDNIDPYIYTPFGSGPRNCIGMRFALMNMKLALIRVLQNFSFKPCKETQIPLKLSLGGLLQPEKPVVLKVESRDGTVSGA

CC1(C)OB(O)c2cc(NC(=O)c3ccc(F)cc3C(F)(F)F)ccc21 [acoziborole]
metabolic stability [1]: metabolically stable
metabolism by recombinant CYP3A4 [2]: metabolized by
brain to plasma AUC0–24h ratio [3]: 44%
absolute bioavailability [4]: 55%
mean t1/2 ratio of acoziborole to total radioactivity in blood ([5]; 960 mg single oral dose): 1.1
mean t1/2 ratio of acoziborole to total radioactivity in plasma ([5]; 960 mg single oral dose): 1.0
share of the radioactivity in plasma, based on AUC0–240h and AUC0–∞ ratios of acoziborole to total radioactivity ([5]; 960 mg single oral dose): ~100%
t1/2 in plasma ([5]; 960 mg single oral dose of acoziborole, N = 6, mean ± SD): 272.1 ± 36.3 h
CL/F (apparent total body clearance) ([5]; 960 mg single oral dose, plasma, N = 6, mean ± SD): 0.2 ± 0.0 L/h
time first detected in plasma after dosing ([5]; after 960 mg single oral [14C]-acoziborole): 1 h
AUC(0-t) ([5]; human, plasma, po, 960 mg, 960 mg single oral dose of acoziborole, N = 6, mean ± SD, read-out: AUC0–240h in plasma): 2520 µg·h/mL
AUC(0-t) ([5]; human, plasma, po, 960 mg, 960 mg single oral dose of acoziborole, N = 6, mean ± SD, read-out: AUC0–t in plasma): 5920 µg·h/mL
Tmax ([5]; human, plasma, po, 960 mg, 960 mg single oral dose of acoziborole, N = 6, mean ± SD, read-out: tmax in plasma): 52 ± 9.8 h
AUC(0-inf) ([5]; human, plasma, 960 mg single oral dose of acoziborole, N = 6, mean ± SD, read-out: AUC0–∞ in plasma): 6450 µg·h/mL
half-life ([5]; male, human, plasma, po, 960 mg, 960 mg single oral dose of acoziborole, N = 6, mean ± SD, read-out: t1/2 in plasma (converted)): 272 h
Tmax ([5]; male, human, plasma, po, 960 mg, 960 mg single oral dose, N = 6, read-out: individual tmax values in plasma): 48 to 72 h
Tmax ([5]; male, human, plasma, po, 960 mg, 960 mg single oral dose, N = 6, read-out: median tmax in plasma): 48 h
Cmax ([5]; male, human, plasma, 960 mg single oral dose of acoziborole, healthy males, N = 6, mean ± SD): 14200 ± 1980 ng/mL
Vd/F ([5]; male, human, 960 mg single oral dose, plasma, N = 6, mean ± SD, read-out: Vz/F (apparent volume of distribution during the terminal phase)): 59.1 ± 7.3 L
